Results published in publication PMC10743905, “Design, Synthesis, and In Vitro and In Vivo Bioactivity Studies of Hydrazide–Hydrazones of 2,4-Dihydroxybenzoic Acid” (International Journal of Molecular Sciences, 2023).
In brackets after ≈: the same amount, converted by molar mass.

Key:
[1] = system: Micrococcus luteus ATCC 10240; test: Broth microdilution MIC/MBC; format: cell-based; conditions: for MBC: ATCC10240; for MIC: ATCC10240, read-out: MIC
Text: (§1) In vitro antimicrobial activity assays - Methodology
(§2) The examined compounds 1 - 24 were screened in vitro for antibacterial and antifungal activities using the broth microdilution method according to procedure reported earlier by our research group and European Committee on Antimicrobial Susceptibility Testing (EUCAST) and Clinical and Laboratory Standards Institute (CLSI) guidelines against a panel of reference and clinical or saprophytic strains of microorganisms, in-cluding Gram-positive bacteria, Staphylococcus aureus ATCC 43300 (Methicillin Resistant S. aureus – MRSA), Staphylococcus aureus ATCC 29213 (Methicillin Susceptible S. aureus – MSSA), Staphylococcus epidermidis ATCC 12228, Enterococcus faecalis ATCC 29212, Micro-coccus luteus ATCC 10240, Bacillus subtilis ATCC 6633 and Bacillus cereus ATCC 10876), Gram-negative bacteria (Bordetella bronchiseptica ATCC 4617, Escherichia coli ATCC 25922, Klebsiella pneumoniae ATCC 13883, Proteus mirabilis ATCC 12453, Salmonella typhimurium ATCC 14028 and Pseudomonas aeruginosa ATCC 9027) and fungi belonging to yeasts (Can-dida albicans ATCC 10231, Candida albicans ATCC 2091, Candida parapsilosis ATCC 22019, Candida glabrata ATCC 90030 and Candida krusei ATCC 14243). The microorganisms be-longing to ATCC came from American Type Culture Collection, routinely used for the evaluation of antimicrobials. […]
(§3) Samples containing examined compounds were dissolved in dimethyl sulfoxide (DMSO). […]
(§4) Subsequently, the MIC (Minimal Inhibitory Concentration) of the compounds was ex-amined by the microdilution broth method, using their two-fold dilutions in Mueller- […]
(§5) Hinton broth or (for bacteria) and RPMI 1640 broth with MOPS (for fungi) prepared in 96-well polystyrene plates. Final concentrations of the compounds ranged from 1000 to 0.488 µg/ml. Microbial suspensions were prepared in 0.85% NaCl with an optical density of 0.5 McFarland standard. Next each bacterial or fungal suspension was added per each well containing broth and various concentrations of the examined compounds. After incuba-

[2] = system: Proteus mirabilis ATCC 12453; test: Broth microdilution MIC/MBC; format: cell-based; conditions: ATCC12453
Text: as §1, §2, §3, §4, §5

[3] = system: Pseudomonas aeruginosa ATCC 9027; test: Broth microdilution MIC/MBC; format: cell-based; conditions: ATCC9027
Text: as §1, §2, §3, §4, §5

[4] = system: Salmonella typhimurium ATCC 14028; test: Broth microdilution MIC/MBC; format: cell-based; conditions: Salmonella enterica
Text: as §1, §2, §3, §4, §5

[5] = system: Staphylococcus aureus ATCC 29213; test: Broth microdilution MIC/MBC; format: cell-based
Text: as §1, §2, §3, §4, §5

[6] = system: Staphylococcus aureus ATCC 43300; test: Broth microdilution MIC/MBC; format: cell-based; conditions: Staphylococcus aureus ATCC 43300 (MRSA)
Text: as §1, §2, §3, §4, §5

[7] = system: Staphylococcus epidermidis ATCC 12228; test: Broth microdilution MIC/MBC; format: cell-based; conditions: for MIC: ATCC12228, read-out: MIC
Text: as §1, §2, §3, §4, §5

[8] = system: Bacillus subtilis ATCC 6633; test: Broth microdilution MIC/MBC; format: cell-based; conditions: for MIC: ATCC6633, read-out: MIC
Text: Detailed procedures are presented in the Supplementary Materials. […]
as §1
as §2, with “antimicrobials. All the used microbial cultures were first subcultured on nu-trient agar or Sabouraud agar at 35°C for 18-24 h or 30°C for 24-48 h for bacteria and fungi,” for “antimicrobials.”
(§6) The surface of Mueller-Hinton agar (for bacteria) and RPMI 1640 with MOPS (for fungi) were inoculated with the suspensions of bacterial or fungal species. Microbial suspensions were prepared in sterile saline with an optical density of McFarland standard scale 0.5.
(§7) Samples containing examined compounds were dissolved in dimethyl sulfoxide (DMSO).
(§8) Furthermore, bacterial and fungal suspensions were put onto Petri dishes with solid me-dia containing 2 mg/mL of the tested compounds followed incubation at 37°C for 24h and 30°C for 48h for bacteria and fungi, respectively. The inhibition of microbial growth was judged by comparison with a control culture prepared without any sample tested. Ciprof-loxacin, vancomycin, nitrofurantoin, cefuroxime, ampicillin or nystatin (Sigma) were used as a reference antibacterial or antifungal compounds, respectively.
as §4, §5

[9] = system: Bacillus cereus ATCC 10876; test: Broth microdilution MIC/MBC; format: cell-based; conditions: for MBC: ATCC10876; for MIC: ATCC10876, read-out: MIC
Text: as §1
as §2, with “antimicrobials. All the used microbial cultures were first subcultured on nu-trient agar or Sabouraud agar at 35°C for 18-24 h or 30°C for 24-48 h for bacteria and fungi,” for “antimicrobials.”
as §6, §7, §8, §4, §5

[10] = system: Bordetella bronchiseptica ATCC 4617; test: Broth microdilution MIC/MBC; format: cell-based
Text: as §1
as §2, with “antimicrobials. All the used microbial cultures were first subcultured on nu-trient agar or Sabouraud agar at 35°C for 18-24 h or 30°C for 24-48 h for bacteria and fungi,” for “antimicrobials.”
as §6, §7, §8, §4, §5

[11] = system: Enterococcus faecalis ATCC 29212; test: Broth microdilution MIC/MBC; format: cell-based; conditions: for MIC: ATCC29212, read-out: MIC
Text: as §1
as §2, with “antimicrobials. All the used microbial cultures were first subcultured on nu-trient agar or Sabouraud agar at 35°C for 18-24 h or 30°C for 24-48 h for bacteria and fungi,” for “antimicrobials.”
as §6, §7, §8, §4, §5

[12] = system: Escherichia coli ATCC 25922; test: Broth microdilution MIC/MBC; format: cell-based; conditions: ATCC25922
Text: as §1
as §2, with “antimicrobials. All the used microbial cultures were first subcultured on nu-trient agar or Sabouraud agar at 35°C for 18-24 h or 30°C for 24-48 h for bacteria and fungi,” for “antimicrobials.”
as §6, §7, §8, §4, §5

[13] = system: Klebsiella pneumoniae ATCC 13883; test: Broth microdilution MIC/MBC; format: cell-based; conditions: ATCC13883
Text: as §1
as §2, with “antimicrobials. All the used microbial cultures were first subcultured on nu-trient agar or Sabouraud agar at 35°C for 18-24 h or 30°C for 24-48 h for bacteria and fungi,” for “antimicrobials.”
as §6, §7, §8, §4, §5

[14] = system: Candida albicans ATCC 10231; test: Broth microdilution MIC/MFC; format: cell-based; conditions: for MFC: ATCC10231, read-out: MFC; for MIC: ATCC10231, read-out: MIC
Text: as §1
as §2, with “antimicrobials. All the used microbial cultures were first subcultured on nu-trient agar or Sabouraud agar at 35°C for 18-24 h or 30°C for 24-48 h for bacteria and fungi,” for “antimicrobials.”
as §6, §7, §8, §4, §5

[15] = system: Candida albicans ATCC 2091; test: Broth microdilution MIC/MFC; format: cell-based; conditions: for MIC: ATCC2091, read-out: MIC
Text: as §1
as §2, with “antimicrobials. All the used microbial cultures were first subcultured on nu-trient agar or Sabouraud agar at 35°C for 18-24 h or 30°C for 24-48 h for bacteria and fungi,” for “antimicrobials.”
as §6, §7, §8, §4, §5

[16] = system: Candida glabrata ATCC 90030; test: Broth microdilution MIC/MFC; format: cell-based; conditions: Nakaseomyces glabratus, ATCC90030, read-out: MIC
Text: as §1
as §2, with “antimicrobials. All the used microbial cultures were first subcultured on nu-trient agar or Sabouraud agar at 35°C for 18-24 h or 30°C for 24-48 h for bacteria and fungi,” for “antimicrobials.”
as §6, §7, §8, §4, §5

[17] = system: Candida krusei ATCC 14243; test: Broth microdilution MIC/MFC; format: cell-based; conditions: Pichia kudriavzevii, ATCC14243, read-out: MIC
Text: as §1
as §2, with “antimicrobials. All the used microbial cultures were first subcultured on nu-trient agar or Sabouraud agar at 35°C for 18-24 h or 30°C for 24-48 h for bacteria and fungi,” for “antimicrobials.”
as §6, §7, §8, §4, §5

[18] = system: Candida parapsilosis ATCC 22019; test: Broth microdilution MIC/MFC; format: cell-based; conditions: Lodderomyces parapsilosis, ATCC22019, read-out: MIC
Text: as §1
as §2, with “antimicrobials. All the used microbial cultures were first subcultured on nu-trient agar or Sabouraud agar at 35°C for 18-24 h or 30°C for 24-48 h for bacteria and fungi,” for “antimicrobials.”
as §6, §7, §8, §4, §5

Gram-negative bacteria = test: Broth microdilution, summary over the Gram-negative panel; format: cell-based
Text: as §1
as §2, with “antimicrobials. All the used microbial cultures were first subcultured on nu-trient agar or Sabouraud agar at 35°C for 18-24 h or 30°C for 24-48 h for bacteria and fungi,” for “antimicrobials.”
as §6, §7, §8, §4, §5

Row | Structure (SMILES) | MBC/MIC [1] | MBC [1] [µg/mL] | MIC [1] [µg/mL] | MIC [2] [µg/mL] | MIC [3] [µg/mL] | MIC [4] [µg/mL] | MIC ([5]; ATCC29213) [µg/mL] | MIC [6] [µg/mL] | MIC [7] [µg/mL] | MIC [8] [µg/mL] | MBC/MIC [9] | MBC [9] [µg/mL] | MIC [9] [µg/mL] | MIC ([10]; ATCC4617) [µg/mL] | MIC [11] [µg/mL] | MIC [12] [µg/mL] | MIC [13] [µg/mL] | MFC/MIC [14] | MFC [14] [µg/mL] | MIC [14] [µg/mL] | also measured
1 | CCOc1cc(/C=N/NC(=O)c2ccc(O)cc2O)ccc1OC [Compound 14, N-[(3-ethoxy-4-methoxyphenyl)methylidene]-2,4-dihydroxybenzohydrazide] | > 8 | > 1000 | 125 (≈ 378 µM) | > 1000 | > 1000 | > 1000 | > 1000 | > 1000 | > 1000 | > 1000 | > 2 | > 1000 | 500 (≈ 1510 µM) | 1000 (≈ 3030 µM) | > 1000 | > 1000 | > 1000 | > 2 | > 1000 | 500 (≈ 1510 µM) | MBC/MIC [10]: 1; MBC ([10]; ATCC4617): 1000 µg/mL (≈ 3030 µM); MIC [15]: > 1000 µg/mL; MIC [16]: > 1000 µg/mL; MIC [17]: > 1000 µg/mL; MIC [18]: > 1000 µg/mL; MBC (Gram-negative bacteria): > 1000 µg/mL; MIC (Gram-negative bacteria): 500 to 1000 µg/mL (≈ 1510 to 3030 µM); melting point: 230 °C
2 | COc1cc(/C=N/NC(=O)c2ccc(O)cc2O)cc(I)c1O [Compound 16, 2,4-dihydroxy-N-[(4-hydroxy-3-iodo-5-methoxyphenyl)methylidene]benzohydrazide] | > 4 | > 1000 | 250 (≈ 584 µM) | > 1000 | > 1000 | > 1000 | 1000 (≈ 2340 µM) | > 1000 | 1000 (≈ 2340 µM) | 250 (≈ 584 µM) | > 1 | > 1000 | 1000 (≈ 2340 µM) | > 1000 | 1000 (≈ 2340 µM) | > 1000 | > 1000 | > 1 | > 1000 | 1000 (≈ 2340 µM) | MBC/MIC [5]: > 1; MBC ([5]; ATCC29213): > 1000 µg/mL; MBC/MIC [7]: > 1; MBC ([7]; ATCC12228): > 1000 µg/mL; MBC/MIC [8]: > 4; MBC ([8]; ATCC6633): > 1000 µg/mL; MBC/MIC [11]: > 1; MBC ([11]; ATCC29212, read-out: MBC): > 1000 µg/mL; MFC/MIC [15]: > 4; MFC ([15]; ATCC2091, read-out: MFC): > 1000 µg/mL; MIC [15]: 250 µg/mL (≈ 584 µM); MIC [16]: > 1000 µg/mL; MIC [17]: > 1000 µg/mL; MIC [18]: > 1000 µg/mL; melting point: 255 °C
